Data: article PMC9569468 (International Journal of Molecular Sciences, 2022)
Where two headings read alike, the source gives them in different places.

How the values were obtained:
[1] = tested on: NRC-03-nhCoV in Vero-E6 cells; test: microbe, parasite or virus in culture; assay type: cell-based, SARS-CoV-2; conditions: Severe acute respiratory syndrome coronavirus 2, Vero C1008, read-out: Half maximal inhibitory concentration (IC50) against NRC-03-nhCoV
[2] = tested on: SARS-CoV-2 "NRC-03-nhCoV"; test: microbe, parasite or virus in culture; assay type: cell-based
in vitro = conditions: African green monkey
MERS-CoV "NRCE-HKU270" = test: microbe, parasite or virus in culture; assay type: cell-based; conditions: for IC50: Middle East respiratory syndrome-related coronavirus, Vero C1008, read-out: Antiviral Activities MERS-CoV IC50 (µM)
SARS-CoV-2 = conditions: read-out: IC50 of FDA-approved drugs applied in COVID-19 treatment protocols; cited from earlier work
[3] = Severe acute respiratory syndrome coronavirus 2, Vero C1008, read-out: Antiviral Activities SARS-CoV-2 IC50 (µM)
[4] = read-out: Antiviral Activities SARS-CoV-2 IC50

SMILES | IC50 [1] [µM] | IC50 [2, 3] [µM] | IC50 [2, 4] [µM] | CC50 (in vitro; Cytotoxicity (CC50, µM)) [µM] | Antiviral Activities MERS-CoV SI (selectivity index) (MERS-CoV "NRCE-HKU270") | IC50 (MERS-CoV "NRCE-HKU270") [µM] | Antiviral Activities SARS-CoV-2 SI (selectivity index) [2] | melting point [°C] | IC50 (SARS-CoV-2) [µM] | CC50 (in vitro; Half maximal cytotoxic concentration (CC50)) [µM]
O=C1Nc2ccc([N+](=O)[O-])cc2[C@]12C[C@@H](S(=O)(=O)c1ccccc1)[C@H]1C[C@H](O)CN12 [Compound 4c, (1’R,3R,6’S,7a’R)-6’-Hydroxy-5-nitro-1’-(phenylsulfonyl)-1’,2’,5’,6’,7’,7a’-hexahydrospiro[indoline-3,3’-pyrrolizin]-2-one] | 8.79 | 17 | 18 | 1100 | 16.84 | 65 | – | – | – | –
CCC(CC)COC(=O)[C@H](C)N[P@](=O)(OC[C@H]1O[C@@](C#N)(c2ccc3c(N)ncnn23)[C@H](O)[C@@H]1O)Oc1ccccc1 [Remdesivir, reference compound] | 6.72 | 6.72 | – | 473 | 172.66 | 2.74 | 70.40 | – | – | –
O=C1Nc2ccccc2[C@]12C[C@@H](S(=O)(=O)c1ccccc1)[C@H]1CCCN12 [Compound 4a, (1’R,3R,7a’R)-1’-(Phenylsulfonyl)-1’,2’,5’,6’,7’,7a’-hexahydrospiro[indoline-3,3’-pyrrolizin]-2-one] | – | 29 | – | 326 | 5.25 | 62 | 11.24 | 298 | – | –
NC(=O)c1ncn([C@@H]2O[C@H](CO)[C@@H](O)[C@H]2O)n1 [Ribavirin] | – | – | – | – | – | – | – | – | 70 | –
O=C1Nc2ccc(Br)cc2[C@]12C[C@@H](S(=O)(=O)c1ccccc1)[C@H]1C[C@H](O)CN12 [Compound 4d, (1’R,3R,6’S,7a’R)-5-Bromo-6’-hydroxy-1’-(phenylsulfonyl)-1’,2’,5’,6’,7’,7a’-hexahydrospiro[indoline-3,3’-pyrrolizin]-2-one] | – | 24 | – | 206 | 8.95 | 23 | 8.58 | 220 | – | –
O=C1Nc2ccc(Cl)cc2[C@]12C[C@@H](S(=O)(=O)c1ccccc1)[C@H]1CSCN12 [Compound 4b, (3R,7’R,7a’R)-5-Chloro-7’-(phenylsulfonyl)-1’,6’,7’,7a’-tetrahydro-3’H-spiro[indoline-3,5’-pyrrolo [1,2-c]thiazole]-2-one] | – | 194 | – | 1040 | 9.95 | 105 | 5.38 | 282 | – | –
O=C1Nc2cc(Cl)ccc2[C@]12C[C@@H](S(=O)(=O)c1ccccc1)[C@H]1CCCN12 [Compound 4m] | – | 305 | – | 225 | 1.17 | 191 | <1 | – | – | –
CC[C@H]1OC(=O)[C@H](C)[C@@H](O[C@H]2C[C@@](C)(OC)[C@@H](O)[C@H](C)O2)[C@H](C)[C@@H](O[C@@H]2O[C@H](C)C[C@H](N(C)C)[C@H]2O)[C@](C)(O)C[C@@H](C)CN(C)[C@H](C)[C@@H](O)[C@]1(C)O [Azithromycin] | – | – | – | – | – | – | – | – | 2.12 | –
CN1C(=O)[C@@]2(C[C@@H](S(=O)(=O)c3ccccc3)[C@H]3CCCN32)c2ccccc21 [Compound 4k, (1’R,3R,7a’R)-1-Methyl-1’-(phenylsulfonyl)-1’,2’,5’,6’,7’,7a’-hexahydrospiro[indoline-3,3’-pyrrolizin]-2-one] | 5.98 | 27 | – | 883 | 13.37 | 66 | – | – | – | 882
O=C1Nc2ccc(Br)cc2[C@]12C[C@@H](S(=O)(=O)c1ccccc1)[C@H]1CCCN12 [Compound 4j, (1’R,3R,7a’R)-5-Bromo-1’-(phenylsulfonyl)-1’,2’,5’,6’,7’,7a’-hexahydrospiro[indoline-3,3’-pyrrolizin]-2-one] | – | 197 | – | 200 | <1 | 376 | 1.01 | 250 | – | –
O=C1Nc2ccc(Cl)cc2[C@]12C[C@@H](S(=O)(=O)c1ccccc1)[C@H]1CCCN12 [Compound 4g, (1’R,3R,7a’R)-5-Chloro-1’-(phenylsulfonyl)-1’,2’,5’,6’,7’,7a’-hexahydrospiro[indoline-3,3’-pyrrolizin]-2-one] | – | 405 | – | 405 | 3.97 | 101 | 1 | 254 | – | –
O=C1N(CCBr)c2ccccc2[C@]12C[C@@H](S(=O)(=O)c1ccccc1)[C@H]1CCCN12 [Compound 4l, (1’R,3R,7a’R)-1-(2-Bromoethyl)-1’-(phenylsulfonyl)-1’,2’,5’,6’,7’,7a’-hexahydrospiro[indoline-3,3’-pyrrolizin]-2-one] | – | 107 | – | 206 | 1.41 | 146 | 1.92 | 70 | – | –
O=C1Nc2cc(Cl)ccc2[C@]12C[C@@H](S(=O)(=O)c1ccccc1)[C@H]1CSCN12 [Compound 4n, (3R,7’R,7a’R)-6-Chloro-7’-(phenylsulfonyl)-1’,6’,7’,7a’-tetrahydro-3’H-spiro[indoline-3,5’-pyrrolo [1,2-c]thiazole]-2-one] | – | 667 | – | 222 | – | 15 | – | – | – | –
O=C1Nc2ccccc2[C@]12C[C@@H](S(=O)(=O)c1ccccc1)[C@H]1CSCN12 [Compound 4i, (3R,7’R,7a’R)-7’-(Phenylsulfonyl)-1’,6’,7’,7a’-tetrahydro-3’H-spiro[indoline-3,5’-pyrrolo [1,2-c]thiazole]-2-one] | 14.7 | 34 | – | 1990 | – | 11 | – | – | – | –
COc1ccc2c(c1)[C@]1(C[C@@H](S(=O)(=O)c3ccccc3)[C@H]3CCCN31)C(=O)N2 [Compound 4h, (1’R,3R,7a’R)-5-Methoxy-1’-(phenylsulfonyl)-1’,2’,5’,6’,7’,7a’-hexahydrospiro[indoline-3,3’-pyrrolizin]-2-one] | – | 37 | – | 571 | 38.06 | 15 | 15.43 | 240 | – | –
CC(C)c1nc(CN(C)C(=O)N[C@H](C(=O)N[C@@H](Cc2ccccc2)C[C@H](O)[C@H](Cc2ccccc2)NC(=O)OCc2cncs2)C(C)C)cs1 [Ritonavir] | – | – | – | – | – | – | – | – | ≥ 100 | –
COc1ccc2c(c1)[C@]1(C[C@@H](S(=O)(=O)c3ccccc3)[C@H]3CSCN31)C(=O)N2 [Compound 4f, (3R,7’R,7a’R)-5-Methoxy-7’-(phenylsulfonyl)-1’,6’,7’,7a’-tetrahydro-3’H-spiro[indoline-3,5’-pyrrolo [1,2-c]thiazole]-2-one] | – | 2250 | – | 345 | 3.92 | 88 | <1 | 105 | – | –
O=C1Nc2ccc([N+](=O)[O-])cc2[C@]12C[C@@H](S(=O)(=O)c1ccccc1)[C@H]1CSCN12 [Compound 4e, (3R,7’R,7a’R)-5-Nitro-7’-(phenylsulfonyl)-1’,6’,7’,7a’-tetrahydro-3’H-spiro[indoline-3,5’-pyrrolo [1,2-c]thiazole]-2-one] | – | 18 | 17 | 289 | 3.90 | 74 | 17 | 95 | – | –
